We go through 16 molecules from patent publication US9399649B2, “Compounds for treating spinal muscular atrophy” (PTC Therapeutics Inc., priority 2012, dated 2016).

Data set [1] has as its system full length SMN2 minigene mRNA containing SMN2 exon 7. In words: SMN2 minigene mRNA splicing RT-qPCR assay in cultured cells. Conditions: Homo sapiens, HEK293-H; HEK293H cells stably transfected with SMN2-A minigene, 24 hours, 7-point concentration curve; concentration giving 1.5-fold full length SMN2 mRNA vs vehicle; read-out: EC1.5x for production of full length SMN2 mRNA. The class given is cell-based, human. The essentials: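 HEK293H cells stably carrying SMN2-A minigene treated 24 h (37 °C) with compound, 7-point 3.16-fold dilution, duplicates. Multiplex RT-qPCR on lysate with exon 7/luciferase primers and exon 7–8 junction probe (minigene-specific). Full-length transcript normalised to GAPDH by modified ΔΔCt, expressed relative to vehicle-treated cells.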
(In general: Quantitative PCR measures a nucleic acid by following its amplification.)

Data set [2] deals with Smn protein. In words: Smn protein assay in cultured cells (SMN HTRF). Type of data set: cell-based, human. Conditions: SMA patient fibroblast cells (GM03813), 48 hours; for maximum fold (Fold) increase of Smn protein: 7-point concentration data, relative to vehicle control; for EC1.5x for Smn protein expression: 7-point concentration curve, concentration producing 1.5 times Smn protein vs DMSO vehicle. The gist of the method:
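SMA patient fibroblasts, 5,000 per well in DMEM-10% FBS, exposed 48 h at 37° C. to a 7-point, 3.16-fold compound series in triplicate. RIPA lysates read by SMN HTRF (665/620 nm, overnight at room temperature); ΔF over blank expressed as fold of vehicle.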
(In general: TR-FRET usually uses a lanthanide donor and a delayed reading to cut background.)

Broadly, the melting point is the temperature of the solid-liquid transition. Consider `CN1CCN(c2ccc3cc(-c4ccc5c(c4)OCCO5)oc(=O)c3c2)CC1` [Cpd 38, 3-(2,3-dihydro-1,4-benzodioxin-6-yl)-7-(4-methylpiperazin-1-yl)-1H-isochromen-1-one], for which the melting point fell in the range of 163 to 165 °C. For the same molecule, the EC (1.5-fold) in data set [1] was in the range of 3 to 30 µM. The “maximum fold (Fold) increase of Smn protein” value (from here on “maximum fold (Fold) increase”) in data set [2] is on record as “* (A maximum fold increase of ≦1.2 is indicated by one star (*))”.
Regarding `C[C@H]1CN(c2ccc3cc(-c4ccccn4)oc(=O)c3c2)CCN1` [Cpd 34, 7-[(3S)-3-methylpiperazin-1-yl]-3-(pyridin-2-yl)-1H-isochromen-1-one], the melting point is 343 to 345 °C. Further, the EC (1.5-fold) in data set [1] was 0.3 to 1 µM. In data set [2], the “EC1.5x for Smn protein expression” value was “* (An EC1.5× for Smn protein expression between >3 μM and <10 μM is indicated by one star (*))”; the “maximum fold (Fold) increase” value was “*** (a fold increase between >1.35 and ≦1.5 is indicated by three stars (***))”.
The molecule `COCCN1CC=C(c2ccc3cc(-c4cn5cc(C)nc(C)c5n4)oc(=O)c3c2)CC1` [Cpd 92, 3-(6,8-dimethylimidazo[1,2-a]pyrazin-2-yl)-7-[1-(2-methoxyethyl)-1,2,3,6-tetrahydropyridin-4-yl]-1H-isochromen-1-one] gave a melting point of 174 to 176 °C. Besides, in data set [1], the EC (1.5-fold) was at most 0.1 µM. In data set [2], the “EC1.5x for Smn protein expression” value was “**** (an EC1.5×≦0.3 nM is indicated by four stars (****))” and the “maximum fold (Fold) increase” value is “***** (a fold increase >1.65 is indicated by five stars (*****))”.
As to `COc1ccc(-c2cc3ccc(N4C[C@@H](C)N[C@@H](C)C4)cc3c(=O)o2)cc1OC` [Cpd 17, 3-(3,4-dimethoxyphenyl)-7-[(3R,5S)-3,5-dimethylpiperazin-1-yl]-1H-isochromen-1-one], the melting point lay within 309 to 311 °C. In addition, the EC (1.5-fold) in data set [1] lay within 0.3 to 1 µM. For the same molecule, the “maximum fold (Fold) increase” value in data set [2] was “*** (a fold increase between >1.35 and ≦1.5 is indicated by three stars (***))”.
As to `Cc1cn2cc(-c3cc4ccc(N5C[C@@H](C)N(CCO)[C@@H](C)C5)cc4c(=O)o3)nc2cn1` [Cpd 130, 7-[(3R,5S)-4-(2-hydroxyethyl)-3,5-dimethylpiperazin-1-yl]-3-(6-methylimidazo[1,2-a]pyrazin-2-yl)-1H-isochromen-1-one], the melting point lay in the range of 241 to 245 °C. The EC (1.5-fold) in data set [1] is at most 0.1 µM. Besides, in data set [2], the “EC1.5x for Smn protein expression” value is “**** (an EC1.5×≦0.3 nM is indicated by four stars (****))”; the “maximum fold (Fold) increase” value was “**** (a fold increase between >1.5 and ≦1.65 is indicated by four stars (****))”.
Molecule `CN1CCN(c2ccc3cc(-c4ccccn4)oc(=O)c3c2)CC1` [Cpd 4, 7-(4-methylpiperazin-1-yl)-3-(pyridin-2-yl)-1H-isochromen-1-one] registered a melting point of 174 to 176 °C. Besides, in data set [1], the EC (1.5-fold) is 3 to 30 µM. Moreover, the “maximum fold (Fold) increase” value in data set [2] is “* (A maximum fold increase of ≦1.2 is indicated by one star (*))”.
For `COc1ccc(-c2cc3ccc(N4C[C@@H](C)N[C@@H](C)C4)cc3c(=O)o2)cc1` [Cpd 29, 7-[(3R,5S)-3,5-dimethylpiperazin-1-yl]-3-(4-methoxyphenyl)-1H-isochromen-1-one], the melting point fell in the range of 109 to 110 °C. Besides, the EC (1.5-fold) in data set [1] lay in the range of 0.3 to 1 µM. Also, the “maximum fold (Fold) increase” value in data set [2] was “* (A maximum fold increase of ≦1.2 is indicated by one star (*))”.
The molecule `CN1CCCN(c2ccc3cc(-c4ccc5c(c4)OC(F)(F)O5)oc(=O)c3c2)CC1` [Cpd 7, 3-(2,2-difluoro-1,3-benzodioxol-5-yl)-7-(4-methyl-1,4-diazepan-1-yl)-1H-isochromen-1-one] displayed a melting point of 175 to 177 °C. Besides, the EC (1.5-fold) in data set [1] lay in the range of 1 to 3 µM. Moreover, the “maximum fold (Fold) increase” value in data set [2] is on record as “* (A maximum fold increase of ≦1.2 is indicated by one star (*))”.
For the molecule `Cc1nc(Cl)cn2cc(-c3cc4ccc(N5CCN[C@@H](C)C5)cc4c(=O)o3)nc12` [Cpd 108, 3-(6-chloro-8-methylimidazo[1,2-a]pyrazin-2-yl)-7-[(3S)-3-methylpiperazin-1-yl]-1H-isochromen-1-one], the melting point was 251 to 258 °C. Moreover, the EC (1.5-fold) in data set [1] is at most 0.1 µM. Besides, in data set [2], the “EC1.5x for Smn protein expression” value is on record as “**** (an EC1.5×≦0.3 nM is indicated by four stars (****))” and the “maximum fold (Fold) increase” value is on record as “***** (a fold increase >1.65 is indicated by five stars (*****))”.
In turn, `CCN1[C@H](C)CN(c2ccc3cc(-c4cn5cc(C)nc(C)c5n4)oc(=O)c3c2)C[C@@H]1C` [Cpd 147, 3-(6,8-dimethylimidazo[1,2-a]pyrazin-2-yl)-7-[(3R,5S)-4-ethyl-3,5-dimethylpiperazin-1-yl]-1H-isochromen-1-one] returned a melting point of 253 to 258 °C. Besides, the EC (1.5-fold) in data set [1] is at most 0.1 µM. Moreover, in data set [2], the “EC1.5x for Smn protein expression” value was “*** (an EC1.5× between >0.3 nM and ≦1 nM is indicated by three stars (***))”; the “maximum fold (Fold) increase” value is reported as “***** (a fold increase >1.65 is indicated by five stars (*****))”.
The molecule `C[C@H]1CN(c2ccc3cc(-c4cccc(OC(F)F)c4)oc(=O)c3c2)CCN1` [Cpd 53, 3-[3-(difluoromethoxy)phenyl]-7-[(3S)-3-methylpiperazin-1-yl]-1H-isochromen-1-one] gave a melting point of 132 to 134 °C. The EC (1.5-fold) in data set [1] lay in the range of 0.3 to 1 µM. Further, the “maximum fold (Fold) increase” value in data set [2] was “** (a fold increase between >1.2 and ≦1.35 is indicated by two stars (**))”.
Regarding `Cc1nc(Cl)cn2cc(-c3cc4ccc(N5CCN[C@H](C)C5)cc4c(=O)o3)nc12` [Cpd 109, 3-(6-chloro-8-methylimidazo[1,2-a]pyrazin-2-yl)-7-[(3R)-3-methylpiperazin-1-yl]-1H-isochromen-1-one], the melting point was 251 to 258 °C. The EC (1.5-fold) in data set [1] is at most 0.1 µM. Further, in data set [2], the “EC1.5x for Smn protein expression” value was “*** (an EC1.5× between >0.3 nM and ≦1 nM is indicated by three stars (***))”; the “maximum fold (Fold) increase” value is “***** (a fold increase >1.65 is indicated by five stars (*****))”.
The molecule `CCCN1CCN(c2ccc3cc(-c4cn5cc(C)nc(C)c5n4)oc(=O)c3c2)C[C@@H]1C` [Cpd 137, 3-(6,8-dimethylimidazo[1,2-a]pyrazin-2-yl)-7-[(3S)-3-methyl-4-propylpiperazin-1-yl]-1H-isochromen-1-one] came in with a melting point of 249 to 254 °C. The EC (1.5-fold) in data set [1] is at most 0.1 µM. In addition, in data set [2], the “EC1.5x for Smn protein expression” value is on record as “**** (an EC1.5×≦0.3 nM is indicated by four stars (****))” and the “maximum fold (Fold) increase” value is reported as “***** (a fold increase >1.65 is indicated by five stars (*****))”.
The molecule `Cc1cn2cc(-c3cc4ccc(N5CCN(C)[C@@H](C)C5)cc4c(=O)o3)nc2c(C)n1` [Cpd 66, 3-(6,8-dimethylimidazo[1,2-a]pyrazin-2-yl)-7-[(3S)-3,4-dimethylpiperazin-1-yl]-1H-isochromen-1-one] came in with a melting point of 255 to 256 °C. For the same molecule, the EC (1.5-fold) in data set [1] was at most 0.1 µM. In addition, in data set [2], the “EC1.5x for Smn protein expression” value is given as “**** (an EC1.5×≦0.3 nM is indicated by four stars (****))” and the “maximum fold (Fold) increase” value is “***** (a fold increase >1.65 is indicated by five stars (*****))”.
In the case of `COc1c(F)cc(-c2cc3ccc(N4CCN[C@@H](C)C4)cc3c(=O)o2)cc1F` [Cpd 49, 3-(3,5-difluoro-4-methoxyphenyl)-7-[(3S)-3-methylpiperazin-1-yl]-1H-isochromen-1-one], the melting point lay in the range of 170 to 173 °C. The EC (1.5-fold) in data set [1] fell in the range of 3 to 30 µM. Also, in data set [2], the “maximum fold (Fold) increase” value was “* (A maximum fold increase of ≦1.2 is indicated by one star (*))”.
As to `Cc1cn2cc(-c3cc4ccc(C5=CCN(C(C)C)CC5)cc4c(=O)o3)nc2c(C)n1` [Cpd 91, 3-(6,8-dimethylimidazo[1,2-a]pyrazin-2-yl)-7-[1-(propan-2-yl)-1,2,3,6-tetrahydropyridin-4-yl]-1H-isochromen-1-one], the melting point was in the range of 259 to 261 °C. In addition, the EC (1.5-fold) in data set [1] is at most 0.1 µM. Also, in data set [2], the “EC1.5x for Smn protein expression” value is “*** (an EC1.5× between >0.3 nM and ≦1 nM is indicated by three stars (***))”; the “maximum fold (Fold) increase” value is “*** (a fold increase between >1.35 and ≦1.5 is indicated by three stars (***))”.
